Measured values as given in patent US11485742B2, “2-azaspiro[3.4]octane derivatives as M4 agonists” (NOVARTIS AG, priority 2019, dated 2022).

How the values were obtained:
[1] = biological target: T1, Cloned human M1 receptor (CHRM1) (Homo sapiens, UniProt P11229); test: CHRM1 Ca++ Flux Assay (HEK293 M1 cells, agonist mode); type: cell-based; conditions: for Emax: Percent Activity (PA), read-out: M1 FDSS PA %; for EC50: geometric mean if tested more than once, read-out: M1 FDSS EC50
T1 construct: expressed in transfected cells; host or cells: HEK293
T1 sequence (P11229 1-460): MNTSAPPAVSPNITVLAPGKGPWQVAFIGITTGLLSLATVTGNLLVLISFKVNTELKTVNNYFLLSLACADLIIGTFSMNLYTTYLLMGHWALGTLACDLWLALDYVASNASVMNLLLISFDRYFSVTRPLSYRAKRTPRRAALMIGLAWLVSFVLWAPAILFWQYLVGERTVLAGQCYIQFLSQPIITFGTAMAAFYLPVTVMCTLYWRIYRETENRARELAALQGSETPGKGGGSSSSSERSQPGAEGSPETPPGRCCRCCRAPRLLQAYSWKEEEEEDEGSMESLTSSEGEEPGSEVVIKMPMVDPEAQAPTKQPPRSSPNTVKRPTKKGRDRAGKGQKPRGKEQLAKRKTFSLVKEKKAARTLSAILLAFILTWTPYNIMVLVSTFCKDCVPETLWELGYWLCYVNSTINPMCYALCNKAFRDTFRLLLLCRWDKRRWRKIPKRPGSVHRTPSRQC
Procedure, shortened: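 HEK293 cells stably expressing human M1 were loaded with Ca++ dye, then given compounds (11-point dose, triplicate) in HBSS −Ca/−Mg, 20 mM HEPES. Ca++ flux was read over 3 min (agonist mode). Four-parameter curves were fitted, with activity as percent of carbachol EC100.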

[2] = biological target: T2, human cloned CHRM2 receptor (Homo sapiens, UniProt P08172); test: CHRM2 Ca++ Flux Assay (M2_CHO cells, agonist mode); type: cell-based; conditions: M2 CHO cells; for EC50: agonist mode, geometric mean if tested more than once, read-out: M2 FDSS EC50; for Emax: Percent Activity (PA) measured to EC100 of Carbachol, read-out: M2 FDSS PA %
T2 construct: expressed in transfected cells; host or cells: CHO-K1 (M2_CHO)
T2 sequence (P08172 1-466): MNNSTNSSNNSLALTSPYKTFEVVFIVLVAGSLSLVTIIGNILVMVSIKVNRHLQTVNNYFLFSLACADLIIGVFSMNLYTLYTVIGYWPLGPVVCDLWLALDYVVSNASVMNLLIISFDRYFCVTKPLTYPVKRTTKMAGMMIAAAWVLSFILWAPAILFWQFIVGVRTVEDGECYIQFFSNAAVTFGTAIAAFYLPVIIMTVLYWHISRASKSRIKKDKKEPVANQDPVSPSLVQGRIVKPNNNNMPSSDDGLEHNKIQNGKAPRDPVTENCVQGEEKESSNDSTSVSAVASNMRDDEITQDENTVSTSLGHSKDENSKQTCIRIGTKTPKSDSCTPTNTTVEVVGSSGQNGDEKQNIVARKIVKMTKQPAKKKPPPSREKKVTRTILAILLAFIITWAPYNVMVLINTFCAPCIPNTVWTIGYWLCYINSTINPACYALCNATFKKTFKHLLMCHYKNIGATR
Procedure, shortened: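 CHO-K1 cells stably expressing human CHRM2 were plated overnight at 12K cells/well and loaded with Ca++ dye for 1–2 h. They were then held 60 minutes in HBSS −Ca/−Mg, 20 mM HEPES, 2.5 mM probenecid, 20 μM ATP. Agonist-mode Ca++ flux was read over 3 minutes. Four-parameter fits of triplicates gave percent activity relative to carbachol EC100.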

SMILES | Emax [1] | EC50 [1] | EC50 [2] | Emax [2]
Fc1ccc(OCC2CC3(COC3)C2)c(C2CCN([C@@H]3COC4(C3)CN(c3nnco3)C4)CC2)c1 [Example 2S, (S)-7-(4-(2-((2-oxaspiro[3.3]heptan-6-yl)methoxy)-5-fluorophenyl)piperidin-1-yl)-2-(1,3,4-oxadiazol-2-yl)-5-oxa-2-azaspiro[3.4]octane] | 53% | 5410 nM | 2180 nM | 29%
CCc1nnc(COc2ccc(F)cc2C2CCN([C@@H]3COC4(C3)CN(c3nnco3)C4)CC2)s1 [Example 2T, (S)-7-(4-(2-((5-ethyl-1,3,4-thiadiazol-2-yl)methoxy)-5-fluorophenyl)piperidin-1-yl)-2-(1,3,4-oxadiazol-2-yl)-5-oxa-2-azaspiro[3.4]octane] | 89% | 63 nM | 41 nM | 44%
OC1(COc2ccc(F)cc2C2CCN([C@@H]3COC4(C3)CN(c3nnco3)C4)CC2)COC1 [Example 2U, (S)-3-((2-(1-(2-(1,3,4-oxadiazol-2-yl)-5-oxa-2-azaspiro[3.4]octan-7-yl)piperidin-4-yl)-4-fluorophenoxy)methyl)oxetan-3-ol] | 81% | 223 nM | 275 nM | 51%
CC(C)(O)CCOc1cc(F)ccc1C1CCN([C@@H]2COC3(C2)CN(c2nncs2)C3)CC1 [Example 5V, (S)-4-(2-(1-(2-(1,3,4-thiadiazol-2-yl)-5-oxa-2-azaspiro[3.4]octan-7-yl)piperidin-4-yl)-5-fluorophenoxy)-2-methylbutan-2-ol] | 79% | 786 nM | > 25000 nM | 0%
Fc1ccc(OC2CC3(COC3)C2)c(C2CCN([C@@H]3COC4(C3)CN(c3nncs3)C4)CC2)c1 [Example 5W, (S)-7-(4-(2-((2-oxaspiro[3.3]heptan-6-yl)oxy)-5-fluorophenyl)piperidin-1-yl)-2-(1,3,4-thiadiazol-2-yl)-5-oxa-2-azaspiro[3.4]octane] | 68% | 3590 nM | 20700 nM | 30%
Fc1ccc(OC[C@H]2CCOC2)c(C2CCN([C@@H]3COC4(C3)CN(c3nncs3)C4)CC2)c1 [Example 5X, (S)-7-(4-(5-fluoro-2-(((S)-tetrahydrofuran-3-yl)methoxy)phenyl)piperidin-1-yl)-2-(1,3,4-thiadiazol-2-yl)-5-oxa-2-azaspiro[3.4]octane] | 75% | 2340 nM | 1420 nM | 43%

Results, then the compound that gave them:

Emax [1] | EC50 [1] | EC50 [2] | Emax [2] | SMILES
47% | 1990 nM | > 25000 nM | 0% | CC(C)(O)COc1ccccc1C1CCN([C@@H]2COC3(C2)CN(c2ncns2)C3)CC1 [Example 5Y, (S)-1-(2-(1-(2-(1,2,4-thiadiazol-5-yl)-5-oxa-2-azaspiro[3.4]octan-7-yl)piperidin-4-yl)phenoxy)-2-methylpropan-2-ol]
53% | 887 nM | 623 nM | 18% | Fc1ccc(OC2CCOCC2)c(C2CCN([C@@H]3COC4(C3)CN(c3ncon3)C4)CC2)c1 [Example 6A, (S)-7-(4-(5-fluoro-2-((tetrahydro-2H-pyran-4-yl)oxy)phenyl)piperidin-1-yl)-2-(1,2,4-oxadiazol-3-yl)-5-oxa-2-azaspiro[3.4]octane]
88% | 490 nM | 390 nM | 38% | Fc1ccc(OC2COC2)c(C2CCN([C@@H]3COC4(C3)CN(c3ncon3)C4)CC2)c1 [Example 6B, (S)-7-(4-(5-fluoro-2-(oxetan-3-yloxy)phenyl)piperidin-1-yl)-2-(1,2,4-oxadiazol-3-yl)-5-oxa-2-azaspiro[3.4]octane]
65% | 2420 nM | 1510 nM | 18% | Fc1ccc(OC2CC3(COC3)C2)c(C2CCN([C@@H]3COC4(C3)CN(c3ncon3)C4)CC2)c1 [Example 6C, (S)-7-(4-(2-((2-oxaspiro[3.3]heptan-6-yl)oxy)-5-fluorophenyl)piperidin-1-yl)-2-(1,2,4-oxadiazol-3-yl)-5-oxa-2-azaspiro[3.4]octane]
0% | > 25000 nM | > 25000 nM | 0% | Fc1ccc(OC2CC3(COC3)C2)c(C2CCN([C@H]3COC4(C3)CN(c3nnco3)C4)CC2)c1 [Example 7A, (R)-7-(4-(2-((2-oxaspiro[3.3]heptan-6-yl)oxy)-5-fluorophenyl)piperidin-1-yl)-2-(1,3,4-oxadiazol-2-yl)-5-oxa-2-azaspiro[3.4]octane]
